According to ChEMBL document CHEMBL3988442, “University of Dundee, Small-Polar-MMV Screening Library” (2021):

Columns and labels:
[1] = microbe, parasite or virus in culture; details: Mycobacterium tuberculosis, 96 h, read-out: pIC50 (converted)
[2] = microbe, parasite or virus in culture; details: Mycobacterium tuberculosis, 72 h, read-out: pIC50 (converted)

| SMILES | IC50 [1] [µM] | IC50 [2] [µM] |
| --- | --- | --- |
| NS(=O)(=O)c1ccc(F)c(C(=O)Nc2ccccc2)c1 | > 501 | 262 |
| COCc1ccccc1CNC(=O)c1nc(C)ns1 | 145 | 488 |
| CC(C)CC1CCN(C(=O)CCn2cnnn2)C1 (stereo unspecified) | 77.2 | 28.3 |
| CCC1c2ccsc2CCN1C(=O)c1ccc(CN)o1 (stereo unspecified) | 370 | 167 |
| COCCNC(=O)COc1ccc2c(c1)OCO2 | 62.9 | 128 |
| CCc1cccc2c1N(C(=O)[C@@H](N)CC)CC2 | > 501 | 244 |
| COC(=O)c1ccc(N2CCC(N(C)c3ccccc3)CC2)nn1 | 12.3 | 37 |
| CN(CCc1ccccn1)Cc1nccn1Cc1ccccc1 | > 50.1 | 43.5 |
| CN1CCOC(C(=O)Nc2ncc(Cl)s2)C1 (stereo unspecified) | 296 | 361 |
| CC(=O)Nc1nc(C(=O)NCc2ccc(C)s2)cs1 | 268 | 224 |
| Fc1ccc(Cn2ccnn2)c(Cl)c1 | > 501 | > 501 |
| Cc1ccc(-c2nc(CNC(C)Cn3cccn3)cs2)o1 (stereo unspecified) | > 50.1 | > 50.1 |
| Cc1nc(Nc2ncccn2)cc(C2CN(C(=O)c3cccnc3)C2)n1 | > 50.1 | > 50.1 |
| CN1CCC(NC(=O)c2coc(Br)c2)CC1=O (stereo unspecified) | > 501 | > 501 |
| Cc1nn(CCN(C)c2ccccc2)c(N)c1C#N | > 501 | 265 |
| O=C(NCCOCc1ccccc1)c1ccco1 | 245 | 249 |
| CCc1noc(Cn2cnc3ccccc3c2=O)n1 | > 501 | > 501 |
| CCc1nnsc1C(=O)N1CCc2sccc2C1 | > 501 | 176 |
| CCCn1nccc1C(=O)Nc1nc(C)c(C)s1 | 47.4 | > 50.1 |
| Nc1nccnc1C(=O)NCc1cc(Br)cs1 | 132 | 93.5 |
| COc1cccc(CNCCn2cccn2)c1OC | > 501 | 196 |
| CC(CNCC(F)(F)CO)c1ccccc1 (stereo unspecified) | > 501 | > 501 |
| O=C(NCCSC1CCCC1)c1ccccn1 | > 501 | 173 |
| COC(=O)c1cnc(/C=C/c2ccc(C(=O)O)cc2)s1 | 27.3 | 26.6 |
| Cc1cc(C(=O)NCc2ccc(F)cc2)[nH]n1 | 132 | 28 |
| Cc1ccccc1N1CCN(c2cc(N(C)C)ncn2)C(C)C1 (stereo unspecified) | > 50.1 | > 50.1 |

| SMILES | IC50 [1] [µM] | IC50 [2] [µM] |
| --- | --- | --- |
| Cc1cccc(NCC(=O)NC2CCCCC2)n1 | 148 | 152 |
| Cc1cccc(C)c1NC(=O)CC(CN1CCN(C)CC1)C(=O)O (stereo unspecified) | > 50.1 | 32.8 |
| CC(C)C1CN(C(=O)CCc2ccccn2)CCS1 (stereo unspecified) | 95.5 | 79.8 |
| Cc1cnn(CCNCc2cccc3c2OCO3)c1 | > 501 | 258 |
| O=C(NCc1cccs1)c1cnccn1 | 80.5 | 33.9 |
| CCc1cc(CNC(=O)c2ccc(F)c(F)c2)[nH]n1 | 102 | 175 |
| CC(C)COCC(O)Cn1nnc(-c2ccco2)n1 (stereo unspecified) | 12.9 | 88.9 |
| CCCc1cc(C(=O)N2CCCN(C)CC2)cs1 | > 501 | > 501 |
| O=C(NCC1CC1)c1cccc2nn[nH]c12 | 256 | 233 |
| Cc1noc(NC(=O)c2ccc(C(F)(F)F)nc2C)n1 | 151 | 164 |
| COc1ccc(-c2cc(NCCO)nc(N)n2)cc1C | > 501 | 280 |
| Nc1cnn(Cc2ccccn2)c1 | > 501 | 206 |
| CCN(CC1CCOC1)C(=O)c1cc(I)c[nH]1 (stereo unspecified) | > 501 | 212 |
| CC(C)c1cc(C(=O)N2CC[C@@H](N)C2)nn1C(C)(C)C | > 501 | > 501 |
| CC(NC(=O)CSc1nc(=O)[nH]n1C)c1cccs1 (stereo unspecified) | 234 | 175 |
| Cc1cccc(CN2CCCC3(CCN(C4CCSCC4)C3)C2=O)c1 (stereo unspecified) | 15.8 | 10 |
| CC(C)n1cc(Br)cc1C(=O)NC1=NCCS1 | > 501 | 177 |
| CSC1=Nc2c(cnn2-c2cccc(Cl)c2)C2=NCCCN12 | 28.3 | 5.78 |
| COc1cccc(S(=O)(=O)CCN2CCCC2CO)c1 (stereo unspecified) | 141 | 462 |
| CC(C)N(C)S(=O)(=O)N1CCc2sccc2C1C (stereo unspecified) | 207 | 150 |
| Cc1nn(C)c2nc(NCCSc3ncn[nH]3)sc12 | > 501 | > 501 |
| N#Cc1ccc(OCCCN2CCNC(=O)C2)cc1 | 290 | 233 |
| CN(Cc1ccc(Br)cc1)C(=O)CSc1nc(N)n[nH]1 | > 501 | 152 |
| Cn1cccc1C(=O)N1CCN2C[C@H](Oc3cccnc3)C[C@H]2C1 | > 50.1 | > 50.1 |
| Cc1ccc(C(CN)N2CCCC2)o1 (stereo unspecified) | > 501 | 101 |
| COCCCN(C)S(=O)(=O)c1ccc(Br)cn1 | 206 | 278 |

| SMILES | IC50 [1] [µM] | IC50 [2] [µM] |
| --- | --- | --- |
| CC(C)Nc1nc(N2CCCC2)nc2c1CN(c1ncc(F)cn1)CC2 | 28.3 | 46.4 |
| NCc1nc(-c2cccc(Cl)c2)no1 | > 501 | 323 |
| CCSc1ncc(CN2CCN(c3nc(C)cnc3C)CC2)cn1 | 28.7 | > 50.1 |
| Cc1csc(NC(=O)C(C)Oc2ccc3c(c2)OCO3)n1 (stereo unspecified) | 1.63 | 30.5 |
| COc1ccc2nnc(C(=O)NCC3CCCC3)nc2c1 | > 50.1 | 12.3 |
| O=C(c1cscn1)N1CCN(c2ccc(Cl)cn2)CC1 | 249 | 116 |
| CC(CNC(=O)N[C@@H](C)C(=O)N(C)C)Cc1cccs1 (stereo partly specified) | 277 | 247 |
| NCCNS(=O)(=O)c1ccc(-c2ccccc2)cc1 | 171 | 160 |
| CC(C)c1cc(CN2CCNCC2)no1 | > 50.1 | 32.6 |
| CN(C)S(=O)(=O)N1CCCC1COc1ccccc1 (stereo unspecified) | 271 | 360 |
| COC(=O)C1CCN(C(=O)Cc2cccc(F)c2)CC1 | > 501 | 179 |
| O=C(NCc1[nH]ncc1Br)Nc1nc2c(s1)COCC2 | > 501 | 328 |
| Cc1ccc(NCc2ncc[nH]2)c(F)c1 | > 501 | 216 |
| CCS(=O)(=O)NCCSc1nc2cc(F)c(F)cc2[nH]1 | 448 | 468 |
| NS(=O)(=O)N1CCN(CC=Cc2ccc(F)cc2)CC1 | > 501 | 233 |
| CC1CCCN(CC(=O)Nc2ccccc2C(N)=O)C1 (stereo unspecified) | > 501 | 248 |
| CSC1=Nc2c(cnn2-c2ccc(C)cc2)C2=NCCCN12 | > 50.1 | 0.957 |
| CCCc1ccc(C(=O)N2CCCN(C)CC2)cc1 | > 501 | 270 |
| CCc1ccc(C(=O)NCc2ccccn2)o1 | 138 | 40.5 |
| CN(Cc1ccsc1)Cc1ccc(S(=O)(=O)N(C)C)o1 | 86.4 | > 501 |
| CCc1cc2c(N3CCCC(c4ccn[nH]4)C3)ncnc2s1 (stereo unspecified) | 12.6 | 9.09 |
| CNS(=O)(=O)c1ccc(C(=O)Nc2ccc(F)cc2)o1 | > 501 | > 501 |
| CC(=O)NCc1ccc(C(=O)NC2CCc3nc(C)cn3C2)o1 (stereo unspecified) | > 50.1 | > 50.1 |
| O=C(NCC1(c2ccc(F)cc2)CC1)N1CCC2(CCOC2)C1 (stereo unspecified) | > 50.1 | > 50.1 |
| Cn1ccnc1CN1CCC2(CC(=O)N(c3cncnc3)C2)C1 (stereo unspecified) | > 50.1 | > 50.1 |
| O=C(Nc1cccnc1N1CCC(CO)CC1)C1CC1 | 53.6 | > 501 |

| SMILES | IC50 [1] [µM] | IC50 [2] [µM] |
| --- | --- | --- |
| Cc1ccnc(NCCS(=O)(=O)NCC2CCC2)c1 | 117 | 265 |
| NS(=O)(=O)N1CCN(CCCc2cccc(F)c2)CC1 | > 501 | > 501 |
| CCCc1nc(N2CCCCCC2)c2c(n1)c(C)nn2CC | 43.2 | 23.6 |
| COc1cc(F)cc(NCC(=O)NCc2ccco2)c1 | 32.7 | 35 |
| COc1ccc(C(=O)NCCSc2cnn[nH]2)cc1F | > 501 | > 501 |
| CC(C)c1cccc(S(=O)(=O)N(C)Cc2nnc[nH]2)c1 | > 501 | > 501 |
| O=C(CS(=O)(=O)Cc1cccc(Cl)c1)NCC1CC1 | 263 | 83.2 |
| CN(Cc1ccc(N)nc1)c1ccc(C#N)cn1 | > 501 | > 501 |
| CN(CCC(O)c1ccccc1)C(=O)c1cc(Cl)c[nH]1 (stereo unspecified) | 485 | 237 |
| COC(=O)c1csc(NC(=O)CCn2cccn2)c1 | > 501 | 303 |
| COc1cc(C(=O)NC(C)CC#N)ccc1C (stereo unspecified) | 184 | 185 |
| CC(CO)Sc1ccc(S(=O)(=O)C(F)F)cc1 (stereo unspecified) | 158 | 459 |
| CCc1nc(CN2CCCN(Cc3noc(C4CC4)n3)CC2)cs1 | > 50.1 | > 50.1 |
| NC(=O)Nc1cccc(C(=O)Nc2ccc(Cl)cn2)c1 | 132 | 126 |
| COCCN1CCC(CNC(=O)N2CCC(C)CC2)C1 (stereo unspecified) | 83.9 | 75.1 |
| Cc1cc(Cl)ccc1C(=O)C1CCCN(Cc2cnc(N(C)C)s2)C1 (stereo unspecified) | 40.8 | 45.7 |
| CN1CCN(S(=O)(=O)N2CCCC2)Cc2ccccc21 | 271 | 155 |
| Cc1ccc(C(O)c2cccnc2)cc1 (stereo unspecified) | > 501 | > 501 |
| CC(Nc1cccc(OC(F)(F)F)c1)C(=O)NC(N)=O (stereo unspecified) | > 501 | 184 |
| O=C1c2ccccc2OCC1CN1CCOCC1 (stereo unspecified) | > 501 | 266 |
| NCc1ccc(NC(=O)c2ccccc2O)cc1 | > 501 | 159 |
| CN(Cc1ccccc1Br)C(=O)c1nccnc1N | > 501 | > 501 |
| COc1ccc(CN2CCCC(Nc3cccc(F)c3)C2)cc1O (stereo unspecified) | 16.5 | 11 |
| CS(=O)(=O)CCC(=O)N1C[C@@H]2CC[C@H](C1)N(Cc1ccccc1)C2=O | > 50.1 | > 50.1 |
| COc1cc(C(=O)NCC2CCC2)cc2c1OCCO2 | 321 | 245 |
